Data: PubChem BioAssay AID504703 (Southern Research Specialized Biocontainment Screening …, 2011)
Where “and” joins values, the source holds several entries; their conditions need not be identical. Equal values may be shown once. Calls of active or inactive are those of the source. No rule for the calls is given here.

Test system: M. tuberculosis H37Rv growth inhibition with meropenem
Assay: M. tuberculosis growth inhibition, H37Rv, set 2, dose response (AID 504703);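 also: growth ran 7 days at 37 °C then overnight with Alamar Blue before reading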
[1] = M. tuberculosis H37Rv growth inhibition, measured here: IC50 without meropenem
[2] = M. tuberculosis H37Rv growth inhibition, measured here: IC90 without meropenem
[3] = measured here: IC90 with meropenem

| SMILES | IC50 | IC50 [1] | IC90 [2] [µM] | IC90 [3] |
| --- | --- | --- | --- | --- |
| Cc1ccc(OCC(=O)Nc2cccc3ccccc23)c(C)c1 | 20500 nM (inactive) | > 25000 nM | > 25 | > 25 µM |
| CCCOc1ccc2c(c1)c(C(C)=O)c(C)n2-c1ccccc1 | – | > 25000 nM | > 25 | – |
| COc1ccc2nc(NC(=O)COc3ccc(Cl)cc3)sc2c1 | – | > 25000 nM | > 25 | – |
| Cc1ccccc1OCC(=O)Nc1ncn[nH]1 | – | > 25000 nM | > 25 | – |
| N/C(=N\c1nc2ccccc2o1)NC(=O)C1CC1 | – | > 25000 nM | > 25 | – |
| O=C(COc1ccccc1Cl)Nc1nc2ccccc2s1 | – | > 25000 nM | > 25 | – |
| Cc1cc2ccccc2[nH]1 | – | > 25000 nM | > 25 | – |
| CCOc1ccc2c(c1)cc(C)n2-c1ccccc1 | 11500 nM (inactive) | > 25000 nM | > 25 | > 25 µM |
| Cc1ccc(OCC(=O)Nc2cccc3c(NC(=O)COc4ccc(C)cc4C)cccc23)c(C)c1 | – | > 25000 nM | > 25 | – |
| COC(=O)c1ccc2nc(NC(=O)COc3ccccc3)sc2c1 | – | > 25000 nM | > 25 | – |
| Cc1ccccc1C(=O)Nc1nc2ccccc2[nH]1 | 8750 nM (inactive) | 18000 nM | > 25 | > 25 µM |
| c1ccc(Nc2ncnc3c2oc2ccccc23)cc1 | > 18.8 µM (inactive) and 5.29 µM (inactive) | > 18800 nM and 11500 nM | > 18.8 | > 25 µM |
| O=C(Nc1nc2ccccc2[nH]1)c1ccc(Cl)c(Cl)c1 | 810 nM (inactive) | 1900 nM | > 25 | > 25 µM |
| Cc1cc2cc(Cl)ccc2n1-c1ccccc1 | – | > 25000 nM | > 25 | – |
| Cc1onc(-c2c(Cl)cccc2Cl)c1/C(N)=N/OC(=O)C1CC1 | – | 14700 nM | > 25 | > 25 µM |
| O=C(Nc1ccccc1)Nc1csc2ccccc12 | – | 5500 nM and 1820 nM | > 25 | > 25 µM |
| O=C(COc1ccccc1)Nc1nc2ccccc2s1 | – | > 25000 nM | > 25 | – |
| COc1ccc2nc(NC(=O)COc3c(C)cc(C)cc3C)sc2c1 | – | > 25000 nM | > 25 | – |
| Cc1ccccc1OCC(=O)Nc1ccccc1-c1ccccc1 | 14600 nM (inactive) | > 25000 nM | > 25 | > 25 µM |
| O=C(Nc1nc2ccccc2[nH]1)c1cc2cc(Br)ccc2o1 | – | > 25000 nM | > 25 | – |
| CCOc1ccc2c(c1)c(C(C)=O)c(C)n2-c1cccc(Cl)c1 | 10500 nM (inactive) | > 25000 nM | > 25 | > 25 µM |
| Cc1ccc2sc(NC(=O)COc3ccccc3)nc2c1C | – | 23700 nM | > 25 | – |
| COc1ccc2nc(NC(=O)C(C)Oc3ccccc3)sc2c1 (configuration not stated) | – | > 25000 nM | > 25 | – |
| N/C(=N\c1nc2ccccc2o1)NC(=O)c1ccccc1 | – | > 25000 nM | > 25 | – |

| SMILES | IC50 | IC50 [1] | IC90 [2] [µM] | IC90 [3] |
| --- | --- | --- | --- | --- |
| COc1ccc2nc(NC(=O)c3oc4ccccc4c3C)sc2c1 | – | > 25000 nM | > 25 | – |
| Cc1ccc(OCC(=O)Nc2nc3c(Cl)cccc3s2)cc1 | – | > 25000 nM | > 25 | – |
| COC(=O)c1c(C)[nH]c2ccc(F)cc12 | – | > 25000 nM | > 25 | – |
| Cc1ccc2oc(/N=C(\N)NC(=O)c3ccccc3)nc2c1 | – | > 25000 nM | > 25 | – |
| O=C(COc1cccc2ccccc12)Nc1nc2ccccc2s1 | – | > 25000 nM | > 25 | – |
| COc1ccc(Cl)cc1C(=O)Nc1nc2ccccc2[nH]1 | 16200 nM (inactive) | > 25000 nM | > 25 | > 25 µM |
| Cc1cc(C)c(OCC(=O)Nc2nc3ccccc3[nH]2)c(C)c1 | 5550 nM (inactive) | > 18800 nM and 7460 nM | > 25 | > 25 µM |
| CC(C)(Oc1ccc(Cl)cc1)C(=O)Nc1nc2ccccc2s1 | – | > 25000 nM | > 25 | – |
| Cc1ccccc1OCC(=O)Nc1ccccc1N1CCCCC1 | – | > 25000 nM | > 25 | > 25 µM |
| CC(C)(C)c1ccc(OCC(=O)Nc2nc3ccccc3s2)cc1 | – | > 25000 nM | > 25 | – |
| CCOc1ccc2nc(NC(=O)COc3ccc(OC)cc3)sc2c1 | – | > 25000 nM | > 25 | – |
| CCOc1ccc2c(c1)c(C(C)=O)c(C)n2-c1ccccc1Cl | 13600 nM (inactive) | > 25000 nM | > 25 | > 25 µM |
| COc1ccc2nc(NC(=O)COc3ccccc3C(C)C)sc2c1 | – | > 25000 nM | > 25 | – |
| CCOc1ccc2c(c1)c(C(C)=O)c(C)n2-c1ccccc1 | – | > 25000 nM | > 25 | > 18.8 µM and 2.79 µM |
| Cc1ccc(OCC(=O)Nc2ccc3c4c(cccc24)CC3)c(C)c1 | – | > 25000 nM | > 25 | > 25 µM |
| CCOc1ccc2[nH]cc(C(=O)OC)c2c1 | > 25000 nM (inactive) | > 25000 nM | > 25 | > 25 µM |
| Cc1cc(C)c(OCC(=O)Nc2nc3ccc(C)cc3s2)c(C)c1 | – | > 25000 nM | > 25 | – |
| O=C(CCS(=O)(=O)c1ccc(F)cc1)Nc1nnc(-c2cccs2)o1 | > 18.8 µM (inactive) and 22.4 µM (inactive) | > 25000 nM | > 25 | > 25 µM |
| Cc1cccc(C)c1OCC(=O)Nc1nc2ccc(Cl)cc2s1 | – | > 25000 nM | > 25 | – |
| Cc1ccc(C(C)C)c(OCC(=O)Nc2nc3ccccc3s2)c1 | – | > 25000 nM | > 25 | – |
| Cc1ccccc1OCC(=O)Nc1nnn(C)n1 | – | > 25000 nM | > 25 | – |
| CCc1ccc2nc(/N=C(\N)NC(=O)c3ccccc3)nc(C)c2c1 | 820 nM (inactive) | 1860 nM | > 12.5 | > 25 µM |
| N/C(=N\c1nc2ccccc2o1)NC(=O)COc1ccc2ccccc2c1 | – | > 25000 nM | > 25 | – |
| Cc1cc2cc(O)ccc2[nH]1 | – | > 25000 nM | > 25 | – |
